According to patent US20110311483A1, “CRTH2 MODULATORS” (IRONWOOD PHARMACEUTICALS, INC., priority 2010, published 2011):
pIC50: −log10 of the molar value.

Key:
CRTH2 [1] = biological target: T1, CRTH2 (Homo sapiens, UniProt Q9Y5Y4); assay: DPBS CD11b Antagonist Assay (CD11b expression in eosinophils, polymorphonuclear cells challenged with 15R-Methyl-PGD2); format: cell-based; conditions: polymorphonuclear cells in PBS with CaCl2 and MgCl2; agonist 15R-Methyl-PGD2 10 nM; flow cytometry
T1 construct: polymorphonuclear cells (0.5 ml; 10^6/ml cells) in PBS containing 0.9 mM CaCl2 and 0.5 mM MgCl2) were preincubated with various concentrations of test compounds; endogenous in cells; host or cells: polymorphonuclear cells (eosinophils gated by side scatter and VLA-4)
T1 sequence (Q9Y5Y4 1-395): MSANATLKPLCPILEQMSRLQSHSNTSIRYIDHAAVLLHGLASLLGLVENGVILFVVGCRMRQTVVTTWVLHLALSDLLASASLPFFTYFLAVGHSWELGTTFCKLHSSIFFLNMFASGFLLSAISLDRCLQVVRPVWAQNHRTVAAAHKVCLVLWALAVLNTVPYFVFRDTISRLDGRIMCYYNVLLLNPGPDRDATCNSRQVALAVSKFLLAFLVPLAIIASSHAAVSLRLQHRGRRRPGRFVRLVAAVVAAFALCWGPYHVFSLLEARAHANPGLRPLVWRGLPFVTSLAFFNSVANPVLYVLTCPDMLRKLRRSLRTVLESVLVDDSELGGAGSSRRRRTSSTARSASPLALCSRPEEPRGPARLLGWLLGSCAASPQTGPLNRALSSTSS
Procedure: (§1) Human Whole Blood CD11b Antagonist Assay (modified from Nicholson, et al. Pulmonary Pharmacology and Therapeutics: 20 (2007); 52-59). The potential CRTH2 antagonist activity of certain compounds was tested in human whole blood using an assay that tests the ability of the compounds to block the CD11b expression in eosinophils by 15-R-methyl-PGD2. A CRTH2 antagonist should block CD11b expression by subsequently added 15-Methyl-PGD2. Human whole blood (200 μL) was incubated at 37° C. for 10 minutes in the presence of various concentrations of test compounds before being challenged with the agonist 15R-Methyl-PGD2 (10 nM). Reactions were terminated by the addition of ice-cold PBS+0.5% BSA+2 m MEDTA (1 mL) and centrifugation (300×g for 5 minutes at 4° C.) Cells were then incubated at 4° C. for 10 min in the presence of human IgG. Cells were then incubated for 30-45 min with a mixture of PE-Cy5-labeled mouse anti-human CD16 (10 μl; BD Biosciences) and FITC-labeled mouse anti-human CD11b (10 μL; Beckman Coulter.) After rinsing (1 mL ice-cold PBS+0.5% BSA+2 mMEDTA), red blood cells were lysed by the addition of 1 mL ice-cold H2O to the cell pellet for 30 sec-1 min immediately followed by the addition of 3.5% NaCl (300 μL.) Cells were then rinsed (2×−1 ml ice cold PBS+0.5% BSA+2 m MEDTA) and fixed in PBS containing 1% formaldehyde. The distribution of fluorescence intensities was measured by flow cytometry. Eosinophils were gated out on the basis of their granularity (high side scatter) and absence of CD-16. CD11b was then measured on this eosinophil population on the basis of fluorescence due to FITC. DPBS CD11b Antagonist Assay. The potential CRTH2 antagonist activity of certain compounds was tested using a CD11b expression assay using essentially the method described by Monneret et al. (J Pharmacol Exp Ther 304:349-55, 2003). Briefly, polymorphonuclear cells (0.5 ml; 10^6/ml cells) in PBS containing 0.9 mM CaCl2 and 0.5 mM MgCl2) were preincubated with various concentrations of test compounds at room temperature for 10 minutes before they were challenged with the agonist 15R-Methyl-PGD2 (10 nM). The incubations were terminated by the addition of ice-cold FACSFlow (BD Biosciences; Cat# 342003) and centrifugation (400 g for 5 minutes at 4° C.). The cells were then incubated for 30 minutes at 4° C. with a mixture of PE-labeled mouse anti-human VLA-4 (5 μl; BD Biosciences) and FITC-labeled mouse anti-human CD11b (10 μl; Beckman Coulter). The cells were then incubated with Optilyse C (0.25 ml; Beckman Coulter) for 15 minutes, centrifuged, and then fixed in PBS (0.4 ml; calcium and magnesium free) containing 1% formaldehyde. The distribution of fluorescence intensities among 60,000 cells was measured by flow cytometry. Eosinophils were gated out on the basis of their granularity (high side scatter) and labeling with VLA-4 (PE fluorescence). CD11b was then measured in the eosinophil region on the basis of fluorescence due to FITC. All data were corrected for the value obtained for the corresponding isotope control antibody.

CRTH2 [2] = biological target: T1, CRTH2; assay: Human Whole Blood CD11b Antagonist Assay (CD11b expression in eosinophils challenged with 15R-Methyl-PGD2); format: cell-based; conditions: agonist 15R-Methyl-PGD2 10 nM, flow cytometry
Procedure: as §1, with “The cells were then incubated with Optilyse C (0.25 ml; Beckman Coulter) for 15 minutes, centrifuged, and then fixed in PBS (0.4 ml; calcium and magnesium free) containing 1% formaldehyde.” left out, “All data were corrected for the value obtained for the corresponding isotope control antibody.” left out

| Structure (SMILES) | pIC50 (CRTH2 [1]) | pIC50 (CRTH2 [2]) |
| --- | --- | --- |
| Cc1c(C(=O)c2ccccc2S(=O)(=O)N2CCOCC2)c2c(n1CC(=O)O)CCC(C)(C)C2 [Compound I-1, 2-(2,5,5-Trimethyl-3-(2-(morpholinosulfonyl)benzoyl)-4,5,6,7-tetrahydro-1H-indol-1-yl)acetic acid] | 6.22 to 7.00 | 6.22 to 7.00 |
| CCOC(=O)Cn1c(C)c(Cc2ccccc2S(=O)(=O)N(C)CC)c2c1CC(C)(C)CC2=O [Compound I-2, Ethyl 2-(3-(2-(N-ethyl-N-methylsulfamoyl)benzyl)-2,6,6-trimethyl-4-oxo-4,5,6,7-tetrahydro-1H-indol-1-yl)acetate] | 6.22 to 7.00 | < 6.22 |

Now from value to compound:

| pIC50 (CRTH2 [1]) | pIC50 (CRTH2 [2]) | Structure (SMILES) |
| --- | --- | --- |
| > 8.00 | 7.00 to 8.00 | CCN(C)S(=O)(=O)c1ccccc1Cc1c2c(n(CC(=O)O)c1C)CC(C)(C)CC2=O [Compound I-3, 2-(3-(2-(N-ethyl-N-methylsulfamoyl)benzyl)-2,6,6-trimethyl-4-oxo-4,5,6,7-tetrahydro-1H-indol-1-yl)acetic acid] |
| > 8.00 | > 8.00 | Cc1c(Cc2ccccc2S(=O)(=O)N2CCCCC2)c2c(n1CC(=O)O)CC(C)(C)CC2=O [Compound I-4, 2-(2,6,6-Trimethyl-4-oxo-3-(2-(piperidin-1-ylsulfonyl)benzyl)-4,5,6,7-tetrahydro-1H-indol-1-yl)acetic acid] |
| < 6.22 |  | CCOC(=O)C(C)n1c(C)c(Cc2ccccc2S(=O)(=O)N2CCCC2)c2c1CC(C)(C)CC2=O (stereo not drawn) [Compound I-5, Ethyl 2-(2,6,6-trimethyl-4-oxo-3-(2-(pyrrolidin-1-ylsulfonyl)benzyl)-4,5,6,7-tetrahydro-1H-indol-1-yl)propanoate] |
